Assay results published in patent US20210246128A1, “BICYCLE TOPOISOMERASE I INHIBITING COMPOUNDS, PROCESS FOR PREPARATION AND USE THEREOF” (Council of Scientific & Industrial Research, priority 2018, published 2021).
In brackets after ≈: the same amount, converted by molar mass.

Assays:
[1] = Solubility assay (pH 7.4 pION buffer, UV); assay type: physicochemical; details: pH 7.4 pION buffer, aqueous buffer, kinetic from dmso stock; pH 7.4 buffer, 18 hours incubation; read-out: Avg. Solubility (μg/mL) at pH 7.4
Procedure, shortened: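 Compound from 20 mM DMSO stock diluted to 200 μM in pH 7.4 pION buffer (<1.0% DMSO) and incubated 18 h sealed. Samples vacuum-filtered, filtrate mixed 1:1 with acetonitrile and UV absorbance read at 240 nm against an acetonitrile/buffer reference of the stock.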

[2] = molecular target: T1, endogenous TopI from the whole cell extracts of human breast adenocarcinoma (MCF7) cell (Homo sapiens, UniProt P11387); assay: Plasmid DNA relaxation assay with MCF7 cell lysates (ex vivo); assay type: biochemical; details: MCF7 cell lysates as source of TopI
T1 construct: TopI enzyme in the extract is conserved in its native structure among a plethora of other cellular proteins; endogenous in cells; host or cells: MCF7 whole cell extract
T1 sequence (P11387 1-765): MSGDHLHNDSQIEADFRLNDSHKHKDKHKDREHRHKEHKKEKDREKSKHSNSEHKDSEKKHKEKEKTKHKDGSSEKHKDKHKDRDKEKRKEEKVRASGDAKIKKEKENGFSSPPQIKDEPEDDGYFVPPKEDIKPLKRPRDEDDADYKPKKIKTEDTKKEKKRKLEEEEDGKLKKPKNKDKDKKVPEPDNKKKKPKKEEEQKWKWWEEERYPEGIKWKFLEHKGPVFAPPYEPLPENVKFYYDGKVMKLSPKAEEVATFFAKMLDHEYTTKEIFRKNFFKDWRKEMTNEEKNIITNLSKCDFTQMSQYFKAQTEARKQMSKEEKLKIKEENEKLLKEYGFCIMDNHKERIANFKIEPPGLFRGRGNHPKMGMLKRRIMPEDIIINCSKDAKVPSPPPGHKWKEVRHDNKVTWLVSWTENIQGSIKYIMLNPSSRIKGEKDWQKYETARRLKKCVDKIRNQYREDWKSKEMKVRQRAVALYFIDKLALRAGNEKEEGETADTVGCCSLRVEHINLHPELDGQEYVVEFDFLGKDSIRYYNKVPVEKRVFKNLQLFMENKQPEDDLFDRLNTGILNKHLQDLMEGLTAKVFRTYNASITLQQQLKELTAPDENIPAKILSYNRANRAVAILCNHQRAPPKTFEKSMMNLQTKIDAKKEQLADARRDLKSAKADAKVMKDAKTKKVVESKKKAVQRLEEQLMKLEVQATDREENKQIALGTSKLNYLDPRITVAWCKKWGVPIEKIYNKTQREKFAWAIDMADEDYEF
Description: Human ToPI Inhibition in Plasmid DNA Relaxation Assays with Recombinant TopI (In Vitro) or MCF7 Cell Lysates (Ex Vivo)
Relaxation of supercoiled pBSSK(^+) DNA with recombinant human TopI (HTopI) at a molar ratio of 3:1 at 37° C. for 30 minutes was performed
cellular extracts were utilized as a source of TopI (ex vivo) in plasmid DNA relaxation assays. TopI enzyme in the extract is conserved in its native structure among a plethora of other cellular proteins.

solubility at 18 h [1]: 27.2 µg/mL (≈ 66 µM)
IC50 [2]: 1.83 µM
SMILES: Nc1ccc(-c2ccc3ncc(-c4nnco4)c(NCCCn4ccnc4)c3c2)cn1 [Compound 24, N-(3-(1H-imidazol-1-yl)propyl)-6-(6-aminopyridin-3-yl)-3-(1,3,4-oxadiazol-2-yl)quinolin-4-amine]
